In brackets after ≈: the same amount, converted by molar mass.
Legend:
[1] = Solubility (shaking flask); assay type: physicochemical; conditions: thermodynamic from solid, 37° C. for 24 hours
Method: The solubility for certain compounds were determined using the following protocol and procedure. 1) The solution, sterile water or phosphate buffer solution (PBS), was added to the test compound tube to make the final concentration 10 mg/mL. 2) The sample tube was vortexed and incubated at 37° C. for 24 hours. During the incubation period, the sample tube was vortexed several times. 3) After the incubation, vortex the tube and centrifuge the tube at 13,000 rpm for 10 mins using an Eppendorf Centrifuge Model 5415C. If the solution was still cloudy, centrifuge it for longer until a clear supernatant was achieved. 4) The supernatant was diluted to 1×, 10× and 100× in 50% ACN in water. 5) A six point standard curve was prepared separately to make the final concentrations of 1 μg/mL, 5 μg/mL, 10 μg/mL, 20 μg/mL, 40 μg/mL and 60 μg/mL. 6) Samples were quantified using an HPLC with UV detector. 7) From the three concentrations of 1×, 10× and 100× supernatant, choose the value, which was fallen into the standard curve range (1 ug/mL-60 ug/mL), as the final result. If all the results were out of the curve range, adjust using a dilution factor to make the value within the curve range.

Caco-2 cells = test: in vitro; assay type: in vitro ADME
Method: Caco-2 cells were maintained in Dulbecco's Modification of Eagle's Medium (DMEM) with sodium pyruvate, Glutmax supplemented with 1% Pen/Strep, 1% NEAA and 10% fetal bovine serum in an incubator set at 37° C., 90% humidity and 5% CO2. Caco-2 cells between passage 43 and 61 were grown to confluence over at least 21-days on 24 well PET (polyethylene-terephthalate) plates (BD Biosciences). Experiments were run using a new HBSS donor buffer from Invitrogen containing additional 10 mM HEPES, 15 mM Glucose with pH adjusted to pH 6.5. The receiver well used HBSS buffer supplemented with 1% BSA and the pH adjusted to pH 7.4. After an initial equilibration with transport buffer, TEER values were read to test membrane integrity. The experiment was started by the addition of buffers containing test compounds and 100 μl of solution is taken at 1 and 2 hrs from the receiver compartment. Removed buffer was replaced with fresh buffer and a correction was applied to all calculations for the removed material. Each compound was tested in 2 separate replicate wells for each condition. All samples were immediately collected into 400 μl 100% acetonitrile acid to precipitate protein and stabilize test compounds. Cells were dosed on the apical or basolateral side to determine forward (A to B) and reverse (B to A) permeability. Permeability through a cell free trans-well was also determined as a measure of cellular permeability through the membrane and non-specific binding. To test for non-specific binding and compound instability the total amount of drug was quantitated at the end of the experiment and compared to the material present in the original dosing solution as a percent recovery. Samples were analyzed by LC/MS/MS.
The apparent permeability, Papp, and % recovery were calculated as follows: […]
where, • dR/dt is the slope of the cumulative concentration in the receiver compartment versus time in μM/s based on receiver concentrations measured at 60 and 120 minute. • Vr and Vd is the volume in the receiver and donor compartment in cm^3, respectively. • A is the area of the cell monolayer (0.33 cm^2). • D0 and D120 is the measured donor concentration at the beginning and end of the experiment, respectively. • R120 is the receiver concentration at the end of the experiment (120 minutes).
The apparent permeability for certain compounds were determined using the above procedure.

[2] = Chemical stability in acidic solution (acid stability); assay type: physicochemical; conditions: pH 4.5 chemical solution; pH 4.5, 37° C.; read-out: Acid Stability (T ½, mins @ pH 4.5)
[3] = phosphate buffer solution (PBS), aqueous buffer, PBS

Compound | solubility at 24 h [1, 3] [mg/mL] | other results
CCCCCC(=O)OC[C@H]1O[C@@H](n2cc3c4c(ncnc42)NC(=O)C=C3N)[C@@](C)(O)[C@@H]1OC(=O)CCCCC (stereo in doubt) [Compound 102, Hexanoic acid 5-(9-amino-7-oxo-6,7-dihydro-2,3,5,6-tetraaza-benzo[cd]azulen-2-yl)-3-hexanoyloxy-4-hydroxy-4-methyl-tetrahydro-furan-2-ylmethyl ester] | 0.011 (≈ 20.2 µM) | Permeability Papp (A to B) × 10^−6 cm/s (Caco-2 A-B) (Caco-2 cells): high
CC(=O)OC[C@H]1O[C@@H](n2cc3c4c(ncnc42)NC(=O)C=C3N)[C@@](C)(O)[C@@H]1O (stereo in doubt) [Compound 107, Acetic acid 5-(9-amino-7-oxo-6,7-dihydro-2,3,5,6-tetraaza-benzo[cd]azulen-2-yl)-3,4-dihydroxy-4-methyl-tetrahydro-furan-2-ylmethylester] | 9.15 (≈ 23500 µM) | Permeability Papp (A to B) × 10^−6 cm/s (Caco-2 A-B) (Caco-2 cells): low
CC(=O)O[C@@H]1[C@@H](CO)O[C@@H](n2cc3c4c(ncnc42)NC(=O)C=C3N)C1(C)O (stereo in doubt) [Compound 114, Acetic acid 5-(9-amino-7-oxo-6,7-dihydro-2,3,5,6-tetraaza-benzo[cd]azulen-2-yl)-4-hydroxy-2-hydroxymethyl-4-methyl-tetrahydro-furan-3-yl ester] | 2.95 (≈ 7580 µM) | Permeability Papp (A to B) × 10^−6 cm/s (Caco-2 A-B) (Caco-2 cells): medium
CC(=O)OC[C@H]1O[C@@H](n2cc3c4c(ncnc42)NC(=O)C=C3NC(=O)OCOC(=O)C(C)C)C(C)(O)[C@@H]1OC(C)=O (stereo in doubt) [Compound 118, Isobutyric acid 2-(4-acetoxy-5-acetoxymethyl-3-hydroxy-3-methyl-tetrahydro-furan-2-yl)-7-oxo-6,7-dihydro-2H-2,3,5,6-tetraaza-benzo[cd]azulen-9-ylcarbamoyloxymethyl ester] | 0.06 (≈ 104 µM) | 
Cc1oc(=O)oc1COC(=O)NC1=CC(=O)Nc2ncnc3c2c1cn3[C@@H]1O[C@H](COC(=O)C(C)C)[C@@H](OC(=O)C(C)C)C1(C)O (stereo in doubt) [Compound 119, Isobutyric acid 4-hydroxy-3-isobutyryloxy-4-methyl-5-[9-(5-methyl-2-oxo-[1,3]dioxol-4-ylmethoxycarbonylamino)-7-oxo-6,7-dihydro-2,3,5,6-tetraaza-benzo[cd]azulen-2-yl]-tetrahydro-furan-2-ylmethyl ester] | 0.006 (≈ 9.32 µM) | 
CC(=O)OCOC(=O)NC1=CC(=O)Nc2ncnc3c2c1cn3[C@@H]1O[C@H](COC(C)=O)C(OC(C)=O)[C@@]1(C)O (stereo in doubt) [Compound 120, Acetic acid 3-acetoxy-5-(9-acetoxymethoxycarbonylamino-7-oxo-6,7-dihydro-2,3,5,6-tetraaza-benzo[cd]azulen-2-yl)-4-hydroxy-4-methyl-tetrahydro-furan-2-ylmethylester] | 0.06 (≈ 110 µM) | 
CCC(=O)OC[C@H]1O[C@@H](n2cc3c4c(ncnc42)NC(=O)C=C3N)C(C)(O)[C@@H]1OC(=O)CC (stereo in doubt) [Compound 130, Propionic acid 5-(9-amino-7-oxo-6,7-dihydro-2,3,5,6-tetraaza-benzo[cd]azulen-2-yl)-4-hydroxy-4-methyl-3-propionyloxy-tetrahydro-furan-2-ylmethyl ester] | 0.85 (≈ 1850 µM) | 
CCC(=O)OC[C@H]1O[C@@H](n2cc3c4c(ncnc42)NC(=O)C=C3N)C(C)(O)[C@@H]1O (stereo in doubt) [Compound 131, Propionic acid 5-(9-amino-7-oxo-6,7-dihydro-2,3,5,6-tetraaza-benzo[cd]azulen-2-yl)-3,4-dihydroxy-4-methyl-tetrahydro-furan-2-ylmethylester] | 8.06 (≈ 20000 µM) | 
CC(=O)OC1(C)[C@H](OC(=O)C(C)C)[C@@H](COC(=O)C(C)C)O[C@H]1n1cc2c3c(ncnc31)NC(=O)C=C2N (stereo in doubt) [Compound 133, Isobutyric acid 4-acetoxy-5-(9-amino-7-oxo-6,7-dihydro-2,3,5,6-tetraaza-benzo[cd]azulen-2-yl)-3-isobutyryloxy-4-methyl-tetrahydro-furan-2-ylmethyl ester] | 0.017 (≈ 32.1 µM) | 
CC(C)C(=O)OCOC(=O)NC1=CC(=O)Nc2ncnc3c2c1cn3[C@@H]1O[C@H](CO)[C@@H](OC(=O)[C@@H](N)C(C)C)[C@]1(C)O [Compound 110, 2-Amino-3-methyl-butyric acid 4-hydroxy-2-hydroxymethyl-5-(9-isobutyryloxymethoxycarbonyl-amino-7-oxo-6,7-dihydro-2,3,5,6-tetraaza-benzo[cd]azulen-2-yl)-4-methyl-tetrahydro-furan-3-yl ester] | 8.16 (≈ 13800 µM) | 
CC(=O)OCOC(=O)NC1=CC(=O)Nc2ncnc3c2c1cn3[C@@H]1O[C@H](COC(=O)C(C)C)[C@@H](OC(=O)C(C)C)[C@@]1(C)O [Compound 111, Isobutyric acid 5-(9-acetoxymethoxycarbonylamino-7-oxo-6,7-dihydro-2,3,5,6-tetraaza-benzo[cd]azulen-2-yl)-4-hydroxy-2-isobutyryloxymethyl-4-methyl-tetrahydro-furan-3-yl ester] | 0.002 (≈ 3.31 µM) | 
CC(=O)O[C@@H]1[C@@H](CO)O[C@@H](n2cc3c4c(ncnc42)NC(=O)C=C3NC(=O)OCOC(=O)C(C)C)[C@]1(C)O [Compound 112, Isobutyric acid 2-(4-acetoxy-3-hydroxy-5-hydroxymethyl-3-methyl-tetrahydro-furan-2-yl)-7-oxo-6,7-dihydro-2H-2,3,5,6-tetraaza-benzo[cd]azulen-9-ylcarbamoyloxymethyl ester] | 0.08 (≈ 150 µM) | 
CC(C)C(=O)OCOC(=O)NC1=CC(=O)Nc2ncnc3c2c1cn3[C@@H]1O[C@H](CO)[C@@H](OC(=O)C(C)C)C1(C)O (stereo partly drawn) [Compound 125, Isobutyric acid 4-hydroxy-2-hydroxymethyl-5-(9-isobutyryloxymethoxycarbonyl-amino-7-oxo-6,7-dihydro-2,3,5,6-tetraaza-benzo[cd]azulen-2-yl)-4-methyl-tetrahydro-furan-3-yl ester] | 0.051 (≈ 90.8 µM) | 
Cc1oc(=O)oc1COC(=O)NC1=CC(=O)Nc2ncnc3c2c1cn3[C@@H]1O[C@H](CO)[C@@H](O)C1(C)O (stereo partly drawn) [Compound 126, [2-(3,4-Dihydroxy-5-hydroxymethyl-3-methyl-tetrahydro-furan-2-yl)-7-oxo-6,7-dihydro-2H-2,3,5,6-tetraaza-benzo[cd]azulen-9-yl]-carbamic acid5-methyl-2-oxo-[1,3]dioxol-4-ylmethyl ester] | 0.04 (≈ 79.5 µM) | 
CCC(=O)OC[C@H]1O[C@@H](n2cc3c4c(ncnc42)NC(=O)C=C3N)C(C)(OC(=O)CC)[C@@H]1OC(=O)CC (stereo partly drawn) [Compound 127, Propionic acid 5-(9-amino-7-oxo-6,7-dihydro-2,3,5,6-tetraaza-benzo[cd]azulen-2-yl)-4-methyl-3,4-bis-propionyloxy-tetrahydro-furan-2-ylmethyl ester] | 0.133 (≈ 258 µM) | 
CC(C)C(=O)OCOC(=O)NC1=CC(=O)Nc2ncnc3c2c1cn3[C@@H]1O[C@H](COC(=O)C(C)C)[C@@H](O)C1(C)O (stereo partly drawn) [Compound 129, Isobutyric acid 3,4-dihydroxy-5-(9-isobutyryloxymethoxycarbonyl-amino-7-oxo-6,7-dihydro-2,3,5,6-tetraaza-benzo[cd]azulen-2-yl)-4-methyl-tetrahydro-furan-2-ylmethylester] |  | solubility at 24 h ([1]; sterile water, water): 0.12 mg/mL (≈ 214 µM); half-life at 1 µg/mL [2]: > 2 h
CC(C)C(=O)OC[C@H]1O[C@@H](n2cc3c4c(ncnc42)NC(=O)C=C3N)C(C)(OC(=O)C(C)C)[C@@H]1OC(=O)C(C)C (stereo partly drawn) [Compound 132, Isobutyric acid 5-(9-amino-7-oxo-6,7-dihydro-2,3,5,6-tetraaza-benzo[cd]azulen-2-yl)-3,4-bis-isobutyryloxy-4-methyl-tetrahydro-furan-2-ylmethyl ester] | 0.044 (≈ 78.9 µM) | 
